Data as given in US11191811B2, “Osteocalcin as a treatment for frailty associated with aging” (THE TRUSTEES OF COLUMBIA UNIVERSITY IN THE CITY OF NEW YORK, priority 2014, dated 2021).

Tests used:
wild type mice = assay: Glycemia during subcutaneous infusion; type: in vivo, mouse; details: 0.3, 1 and 3 ng/hour subcutaneously for 28 days, versus PBS
Protocol: FIG. 1. Osteocalcin subcutaneous infusion decreases glycemia in wild-type mice. Indicated doses of recombinant osteocalcin or PBS were infused subcutaneously for 28 days in wild-type mice. Blood glucose was measured at indicated days.
An in vivo experiment was conducted in which the effect of undercarboxylated osteocalcin on glycemia was monitored. Wild type mice were infused with 3 different amounts of mouse recombinant undercarboxylated osteocalcin or placebo (PBS) subcutaneously for 28 days (0.3, 1 and 3 ng/hour). Compared to the control animal infused with placebo, all three doses of undercarboxylated osteocalcin decreased glycemia in vivo over the 28 day period (FIG. 1).

WT myotubes [1] = assay: cAMP accumulation in myotubes; type: cell-based, mouse; details: Ocn 10 ng/ml
Protocol: FIG. 25. Osteocalcin signaling in myofibers is necessary for muscle function during exercise. (A) Serum total osteocalcin (Ocn) and insulin (Ins) levels measured in mice at rest or after a single bout of exercise (40 min, 30 cm/s running on a treadmill) (n=7 per group). (B) Serum uncarboxylated (uncarb)-Ocn levels measured in mice at rest and 0, 1, 2 and 4 hours after a single bout of exercise (40 min, 30 cm/s running on a treadmill) (n=7 per group). (C) Serum CTX levels in mice at rest and after a single bout of exercise (n=7 per group). (D) Performance during endurance exercise of 3 month-old female Ocn-deficient and WT littermates (n=8-10 per group). (E) Performance during endurance exercise of 3 month-old Ocn f/f and OcnOsb−/− littermates (n=3-5 per group). (F) Performance during endurance exercise of 3 month-old female Gprc6a-deficient and WT littermates (n=8-10 per group). (G) Gprc6a expression in various tissues. (H) Gprc6a expression in EDL and soleus muscles (n=3). (I) In situ hybridization analysis of Gprc6a expression in soleus muscle. (J) Gprc6a expression in WT and Ocn−/− muscles (n=6 per group). […]
Serum osteocalcin, PINP, CTX, and insulin levels were measured using ELISA assays. Blood glucose level was measured using an Accu-Check glucometer. Urine 3-MHT was measured as previously described (Aranibar et al., 2011, Anal. Biochem. 410:84-91). […]

WT myotubes [2] = assay: Western blot of Akt phosphorylation (Ser473) in cultured myotubes; type: cell-based, mouse; details: Ocn 10 ng/ml
Protocol: FIG. 26. Osteocalcin signaling in myofibers promotes glucose uptake. (A) VO2, (B) VO2 max and (C) RER in female Gprc6af/f and Gprc6aMck−/− mice during a gradual speed increase test. (D-E) Uptake of ^3H-2-deoxyglucose (^3H-2-DG) in WT and Gprc6a−/− myotubes treated with vehicle or Ocn (dose indicated in panel D, 10 ng/ml in panel E). (F) Uptake of ^3H-2-DG in glycolytic (Gly—white quadriceps) and oxidative (Ox—red quadriceps) muscles after a single bout of exercise in Gprc6af/f and Gprc6aMck^−/− mice (n=4 per group). (G) Blood glucose levels in Gprc6af/f and Gprc6aMck−/− mice after running on a treadmill until exhaustion (n=4 per group). (H) Blood glucose levels in Gprc6af/f and Gprc6aHsa−/− mice after running on a treadmill until exhaustion (n=4 per group). (I) Western blot analyses of Akt phosphorylation (Ser473) in WT myotubes treated with Ocn (10 ng/ml) and in muscles of WT mice injected with Ocn (500 ng/g) after a single bout of exercise. (J) Western blot analyses of Akt phosphorylation (Ser473) in Gprc6af/f and Gprc6aMck−/− muscles after a single bout of exercise. (K) Glycogen content and glycogen breakdown in Gprc6af/f and Gprc6aMck−/− muscles at rest and after exercise.
Culture of skeletal muscle myoblasts from 7 day-old mice was performed as described (Gharaibeh et al., 2008, Nature Protocols 3:1501-1509). […]

uncarboxylated osteocalcin: Recombinant uncarboxylated mouse osteocalcin, bacterially produced, purified on glutathione beads and cleaved from the GST subunit by thrombin (YLGASVPSPDPLEPTREQCELNPACDELSDQYGLKTAYKRIYGITI)
glycemia (wild type mice): decreases
glycemia (wild type mice; listed as undercarboxylated osteocalcin): decreased
cAMP production (WT myotubes [1]): increase
phosphorylation of Akt in cultured myotubes (WT myotubes [2]): induced
